Results: patent US20250011798A1, “[…] PRODUCTION” (ModernaTX, Inc., priority 2021, published 2025)

How the values were obtained:
[1] = system: tolC mutant strain (tolC::amber, Strain 4); experiment: Toxin sensitivity of the tolC::amber mutant strain; format: cell-based, E. coli; conditions: low concentrations; irrespective of the growth media
Excerpt: The TAG amber mutation was introduced into the tolC ORF a plasmid DNA production strain, Strain 4 (FIG. 2). TolC is the major outer membrane efflux pump component of E. coli. It is not an essential gene, but it is necessary for the efflux of many toxins, and a tolC knockout is lethal at elevated levels. The tolC mutant strain generated by the tolC::amber mutation was therefore hypersensitive to many toxins, such as low concentrations of nalidixic acid, irrespective of the growth media. While a tolC mutant has hypersensitivity to toxins, it can be cultured normally in rich media such as LB or Terrific Broth, which allows for the generation of competent cells that may be used for DNA synthesis in production.

[2] = system: E. coli strains tolC::K3_amber (K3) and tolC::H342_amber (H342); experiment: Growth of transformed tolC::amber E. coli strains over 24 hours in media containing kanamycin or deoxycholate; format: cell-based; conditions: K3 and H342 strains with control luciferase plasmid, TBAF++ media containing deoxycholate (DOC 150), 37° C., FIGS. 3C-3D
Experimental: It was evaluated whether plasmid-borne expression of a mutant tRNA with an anticodon that is complementary to the tolC amber mutation would allow for expression of full-length TolC protein, and therefore allow the strain to grow in the presence of an otherwise lethal concentration of nalidixic acid (FIG. 2). In this case, a histidine tRNA, hisR, was modified with an anticodon loop that is complementary to the tolC amber STOP codon, UAG on RNA, which is encoded by TAG on DNA. Mutant E. coli strains were generated by introducing either a tolC::K3_amber (referred to as “K3”) or tolC::H342_amber (referred to as “H342”) amber mutation into the genome (FIG. 3A). Introduction of a STOP codon at an early codon of the open reading frame prevents the translation of non-functional TolC peptides with intact leader sequences, which would otherwise be translocated across the inner cell membrane into the periplasmic space or outer membrane. Each strain also contained codon-optimized tolC coding sequences. Both strains were transformed with a plasmid encoding either i) an amber suppressor tRNA that carries histidine (hisR), or ii) luciferase, as a control plasmid. Both plasmids carried a kanamycin-resistance marker to allow for plasmid maintenance during growth. […]

Compound	Sensitivity of the tolC mutant strain to the toxin [1]	Effect on growth of strains not expressing the HisR tRNA [2]
CCn1cc(C(=O)O)c(=O)c2ccc(C)nc21 [nalidixic acid]	hypersensitive	
deoxycholate [DOC 150]		lethal
